Data reported in US20020072127A1, “Assay of chemical binding” (priority 2000, published 2002).

Assay: Micro-cantilever deflection on ligand-receptor binding (biotin-coated micro-cantilever immersed in water in small vessel)
Description: Referring to FIG. 1, a micro-cantilever 10 is fixed at one end to a block 12. The micro-cantilever 10 is generally V-shaped in plan, comprising two converging strips 13,14, which are integral with a transverse cross strip 15. It projects 0.2 mm from the block 12, the strips 13 and 14 each being 24 microns wide and the entire micro-cantilever 10 is of silicon nitride of thickness 0.6 microns. The top surface of the micro-cantilever 10 is coated with a 5 nm layer of chromium followed by a 13 nm layer of gold, to improve its optical reflectivity. The gold on one strip 13 is then coated with octadecanethiol, which forms a self-assembled, highly ordered monolayer on gold, and biotin is then bonded to this monolayer. Biotin acts as a selective receptor for avidin.
Referring now to FIG. 2 any deflection or twisting of the micro-cantilever 10 is detected optically, by focusing a light beam from a laser diode 16 onto the cross strip 15, and detecting the reflection with a quadrant photodiode 18. The light intensities detected by the four segments of the photodiodo 19 may be used to determine the deflection of the cross strip 15. If the micro-cantilever 10 is exposed to a solution of avidin, which binds to the biotin, this changes the surface stress of the strip 13, causing the micro-cantilever 10 to twist, so changing the inclination of the cross strip 15.
The time at which the avidin is injected is indicated by the arrow A. Before this time the deflection is substantially constant. The gradual change in deflection over a period of about five minutes, the deflection then reaching a new, steady value differing by h from its initial value. The bending is caused by the surface stress change resulting from the reaction; the change in surface stress is, at least approximately, equal to the change of surface energy, which can be related to the concentration c or the ligand and the equilibrium constant K of the binding reaction onto the surface (i.e. ka/kd, where ka is the adsorption coefficient and kd is the desorption coefficient).

Substance	binding strength to biotin relative to immunoglobulin G (FIG. 5, avidin displaces bound immunoglobulin G)	further deflection of the micro-cantilever (FIG. 5, avidin injected (arrow Q) after IgG had bound to biotin, arbitrary units)	deflection of the micro-cantilever resulting from injection (FIG. 5, IgG injected first (arrow P), arbitrary units, steady value after several minutes)	deflection resulting from the initial injection (FIG. 6, concentration in vessel 0.047 μM, after about 10 minutes, arbitrary units)	deflection resulting from the second injection (FIG. 6, concentration raised to 0.068 μM, after a further 10 minutes, arbitrary units)
avidin	binds to biotin more strongly	about 200 units			
immunoglobulin G			about 200 units	about 235 units	about 290 units
